The target of series [1] is T1, hTRPV1 Y511A (Homo sapiens, UniProt Q8NER1, Y511A).
T1 construct: expressed in transfected cells; host or cells: HEK293T ΔPIEZO1 cells, pIRES-EGFP plasmid
The experiment in a line: whole-cell patch-clamp, SB-366791 inhibition of pH 5-induced current, Y511A. The format is cell-based. Particulars: for I / Imax: individual cells. Background: Patch clamp records ionic current or voltage across a cell membrane.

Series [2] has as its target T2, hTRPV1 L515A (Homo sapiens, UniProt Q8NER1, L515A).
T2 construct: we used the same wild-type full-length construct to determine the hTRPV1 structure; expressed in transfected cells; host or cells: HEK293T ΔPIEZO1 cells, pIRES-EGFP plasmid
The experiment in a line: whole-cell patch-clamp, SB-366791 inhibition of pH 5-induced current, L515A. Type of series: cell-based. Particulars: for I / Imax: +80 mV, individual cells.

The target of series [3] is T3, hTRPV1 L547R (Homo sapiens, UniProt Q8NER1, L547R).
T3 construct: we used the same wild-type full-length construct to determine the hTRPV1 structure; expressed in transfected cells; host or cells: HEK293T ΔPIEZO1 cells, pIRES-EGFP plasmid
The experiment in a line: whole-cell patch-clamp, SB-366791 inhibition of pH 5-induced current, L547R. The format is cell-based.

The target of series [4] is T4, hTRPV1 T550A (Homo sapiens, UniProt Q8NER1, T550A).
T4 construct: we used the same wild-type full-length construct to determine the hTRPV1 structure; expressed in transfected cells; host or cells: HEK293T ΔPIEZO1 cells, pIRES-EGFP plasmid
Briefly: whole-cell patch-clamp, SB-366791 inhibition of pH 5-induced current, T550A. Type of series: cell-based.

The target of series [5] is T5, hTRPV1 E693A (Homo sapiens, UniProt Q8NER1, E693A).
T5 construct: we used the same wild-type full-length construct to determine the hTRPV1 structure; expressed in transfected cells; host or cells: HEK293T ΔPIEZO1 cells, pIRES-EGFP plasmid
The experiment in a line: whole-cell patch-clamp, SB-366791 inhibition of pH 5-induced current, E693A. Type of series: cell-based. Particulars: for I / Imax: individual cells.

The target in series [6] is T6, hTRPV1 R557A (Homo sapiens, UniProt Q8NER1, R557A).
T6 construct: expressed in transfected cells; host or cells: HEK293 cells
Briefly: whole-cell patch-clamp, SB-366791 on pH-induced current, R557A. The format is cell-based. Particulars: pH 5.

In series [7] the target is T7, hTRPV1 E570A (Homo sapiens, UniProt Q8NER1, E570A).
T7 construct: expressed in transfected cells; host or cells: HEK293 cells
Briefly: whole-cell patch-clamp, SB-366791 on pH-induced current, E570A. Particulars: pH 5. The format is cell-based.

For series [8], the system named is panel of 47 different targets, including G-protein-coupled receptors and voltage-gated calcium-channels. Particulars: cited from earlier work.
The test system of series [9] is acute pain. Particulars: co-administered with a calcium channel blocker; mice; cited from earlier work.
The target in series [10] is T8, hTRPV1 (Homo sapiens, UniProt Q8NER1). Particulars: no apparent change in the maximal response; cited from earlier work.
The test system of series [11] is bone cancer pain. Particulars: cited from earlier work.
Series [12] concerns glutamatergic transmission in a subset of neurons. Particulars: pre-synaptic TRPV1-dependent mechanism following peripheral inflammation; cited from earlier work.
Series [13] relates to opiate-mediated behaviors. Further details: method as in PMID 27730727. Particulars: rat studies; cited from earlier work.
Series [14] concerns the target T8, hTRPV1. The experiment in a line: whole-cell patch-clamp at -40 mV, SB-366791 inhibition of capsaicin-activated hTRPV1 current and recovery. The format is cell-based. Details: we used the same wild-type full-length construct to determine the hTRPV1 structure; expressed in transfected cells; host or cells: HEK293T ΔPIEZO1 cells, pIRES-EGFP plasmid; I (Cap), hTRPV1 peak current amplitude / I (SB), hTRPV1 peak current amplitude: unit not given here.

For series [15], the target named is T8, hTRPV1. Briefly: whole-cell patch-clamp, SB-366791 inhibition of pH 5-induced current, wild-type hTRPV1. Type of series: cell-based. Further details: we used the same wild-type full-length construct to determine the hTRPV1 structure; expressed in transfected cells; host or cells: HEK293T ΔPIEZO1 cells, pIRES-EGFP plasmid.
The target of series [16] is T6, hTRPV1 R557A. The experiment in a line: whole-cell patch-clamp, capsaicin on hTRPV1 R557A. The format is cell-based. Particulars: 10 μM capsaicin.
Series [17] deals with T7, hTRPV1 E570A. The experiment in a line: whole-cell patch-clamp, capsaicin on hTRPV1 E570A. Type of series: cell-based. Particulars: 10 μM capsaicin.
Series [18] concerns the target T1, hTRPV1 Y511A. Briefly: whole-cell patch-clamp, capsaicin on hTRPV1 Y511A. Type of series: cell-based. Particulars: not shown.
Series [19] relates to rat TRPV1. Details: method as in PMID 27638213. Particulars: cited from earlier work.
The test system of series [20] is mouse TRPV1. Details: method as in PMID 27638213. Particulars: cited from earlier work.
Series [21] has as its system squirrel TRPV1. Further details: method as in PMID 27638213. Particulars: cited from earlier work.
The subject of series [22] is rat TRPV1 Y511A. Particulars: cited from earlier work.
Series [23] deals with the molecule itself. The experiment in a line: cryo-EM structure; apo hTRPV1 in cNW11 nanodiscs with soybean lipids or POPC:POPE:POPG (3:1:1); 150 mM NaCl, 20 mM Tris pH 8.0, 1 mM bME.

Where “and” joins values, the source holds several entries; their conditions need not be identical. Identical values can stand only once. Like-named read-outs stand apart in the source and are kept apart here.

Take `COc1cccc(NC(=O)/C=C/c2ccc(Cl)cc2)c1` [SB-366791, N-(3-methoxyphenyl)−4-chlorocinnamide]: the IC50 (in general, the concentration that inhibits the measured activity by half) in series [1] (+80 mV, mean ± SEM, n = 7) was 253 ± 75 nM; in series [5] (pH 5, +80 mV, mean ± SEM, n = 6, read-out: IC50 of SB-366791), 100 ± 11 nM; in [5] (pH 5, Hill fits of individual cells, read-out: SB-366791 IC50) it was 121 nM and 70 nM and 137 nM and 75 nM and 92 nM and 103 nM; in [5] (response to reviewers, read-out: inhibition by SB-366791, IC50) it was 100 nM; in [15] (WT, pH 5, Hill fits of individual cells, read-out: SB-366791 IC50), 5.41 nM and 45 nM and 38 nM and 6.46 nM and 26 nM and 13 nM and 15 nM; in series [15] (WT, response to reviewers, read-out: inhibition by SB-366791, IC50) it was 21 nM. Also, in series [15] (wild-type, pH 5, +80 mV, mean ± SEM, n = 7, read-out: IC50 of SB-366791), the IC50 amounted to 21 ± 6 nM. In addition, the “I / Imax” value in [1] (SB-366791 0.0001 μM, +80 mV) was 0.951 and 0.974 and 0.889 and 1.022; in [1] (SB-366791 0.001 μM, +80 mV) it was 0.916 and 0.924 and 0.887 and 0.985; in series [1] (SB-366791 0.01 μM, +80 mV), 0.893 and 0.810 and 0.838 and 0.939; in series [1] (SB-366791 0.1 μM, +80 mV), 0.831 (2×) and 0.718 (2×); in [1] (SB-366791 1 μM, +80 mV), 0.638 and 0.474 and 0.443 and 0.511; in [1] (SB-366791 10 μM, +80 mV), 0.537 and 0.399 and 0.380 and 0.562. Further, the “I / Imax” value in [2] (SB-366791 0.0001 μM) is 1.151 and 1.003 and 0.775 and 1.067; in [2] (SB-366791 0.001 μM) it was 0.856 and 0.881 and 0.592 and 0.984; in series [2] (SB-366791 0.01 μM) it was 0.762 and 0.808 and 0.507 and 0.880; in series [2] (SB-366791 0.1 μM), 0.817 and 0.939 and 0.604 and 0.943; in series [2] (SB-366791 1 μM), 0.888 and 1.233 and 0.959 and 1.206; in [2] (SB-366791 10 μM), 0.734 and 1.125 and 1.046 and 1.211. The “I / Imax” value was 0.860 (2×) and 0.830 and 0.980 and 0.850 and 0.890 in series [5] (SB-366791 0.0001 μM, pH 5, +80 mV); 0.820 and 0.780 and 0.880 and 0.830 in series [5] (SB-366791 0.01 μM, pH 5, +80 mV). Further, the “proportion of blocker-resistant current” value in series [1] (mean ± SEM, n = 7) is 0.490 ± 0.070; in series [15] (wild-type, pH 5, mean ± SEM, n = 7), 0.220 ± 0.027 and 0.22 ± 0.03. Also, the “sensitivity to inhibition by the blocker” value in series [2], in series [3] and in series [4] was “completely insensitive” in each case. The SB-366791-resistant fraction in [5] (pH 5, individual cells) was 0.417 and 0.362 and 0.602 and 0.396 and 0.427 and 0.420; in series [15] (WT, pH 5, individual cells), 0.177 and 0.291 and 0.285 and 0.295 and 0.181 and 0.106 and 0.205. Besides, the “fraction of blocker-insensitive current” value in series [5] (pH 5, mean ± SEM, n = 6) was found to be 0.440 ± 0.034. The “inhibition of current induced by changes in pH” value in series [6] and in series [7] was “did not induce any inhibition” in each case. Besides, the “effect on a panel of 47 different targets” value in series [8] is on record as “little or no effect”. In addition, in [9], the “synergistic increase of antinociceptive effect” value is given as 15 fold. Also, the “effect on capsaicin concentration dependence of hTRPV1-mediated calcium uptake” value in series [10] was “rightward shift”. Further, in series [11], the “effect on analgesia by systemic morphine” value is reported as “effectively potentiate the analgesic effects of systemic morphine”. Also, the “effect on glutamatergic transmission” value in [12] is reported as “inhibiting glutamatergic transmission”. In addition, the “effect on opiate-mediated behaviors” value in series [13] is on record as “impair opiate-mediated behaviors”. The “inhibition of capsaicin-activated hTRPV1” value in series [14] (10 µM SB-366791 co-applied with 1 µM capsaicin, -40 mV) is reported as “complete inhibition”. Moreover, in series [14] (Fig 2b, 10 µM SB-366791 in the presence of 1 µM capsaicin, 10 s after SB-366791 application, individual cells, listed as SB), the “I (SB), hTRPV1 peak current amplitude” value is 0.010 and 0.020 and 0.060 and 0.011.

For `COc1cc(CNC(=O)CCCC/C=C/C(C)C)ccc1O` [capsaicin], the “currents induced by capsaicin” value in [16] and in series [17] was “did not induce any currents” in each case. The sensitivity to capsaicin entry in series [18] and in series [22] was “insensitive” throughout. The EC50 (commonly the concentration giving half of the maximal effect) in series [19] is 527 ± 53 nM; in series [20], 776 ± 52 nM; in [21], 529 ± 32 nM. The “I (Cap), hTRPV1 peak current amplitude” value in series [14] (Fig 2b, 1 µM capsaicin, -40 mV, individual cells, listed as Cap) was 0.380 and 0.430 and 4.800 and 2.000 and 1.600.

B1: human TRPV1 (natural protein, UniProt Q8NER1 1-839, looked up)
chain: MKKWSSTDLGAAADPLQKDTCPDPLDGDPNSRPPPAKPQLSTAKSRTRLFGKGDSEEAFPVDCPHEEGELDSCPTITVSPVITIQRPGDGPTGARLLSQDSVAASTEKTLRLYDRRSIFEAVAQNNCQDLESLLLFLQKSKKHLTDNEFKDPETGKTCLLKAMLNLHDGQNTTIPLLLEIARQTDSLKELVNASYTDSYYKGQTALHIAIERRNMALVTLLVENGADVQAAAHGDFFKKTKGRPGFYFGELPLSLAACTNQLGIVKFLLQNSWQTADISARDSVGNTVLHALVEVADNTADNTKFVTSMYNEILMLGAKLHPTLKLEELTNKKGMTPLALAAGTGKIGVLAYILQREIQEPECRHLSRKFTEWAYGPVHSSLYDLSCIDTCEKNSVLEVIAYSSSETPNRHDMLLVEPLNRLLQDKWDRFVKRIFYFNFLVYCLYMIIFTMAAYYRPVDGLPPFKMEKTGDYFRVTGEILSVLGGVYFFFRGIQYFLQRRPSMKTLFVDSYSEMLFFLQSLFMLATVVLYFSHLKEYVASMVFSLALGWTNMLYYTRGFQQMGIYAVMIEKMILRDLCRFMFVYIVFLFGFSTAVVTLIEDGKNDSLPSESTSHRWRGPACRPPDSSYNSLYSTCLELFKFTIGMGDLEFTENYDFKAVFIILLLAYVILTYILLLNMLIALMGETVNKIAQESKNIWKLQRAITILDTEKSFLKCMRKAFRSGKLLQVGYTPDGKDDYRWCFRVDEVNWTTWNTNVGIINEDPGNCEGVKRTLSFSLRSSRVSGRHWKNFALVPLLREASARDRQSAQPEEVYLRQFSGSLKPEDAEVFKSPAASGEK
notes: human TRPV1, wild-type full-length construct; residues 1-839 by the printed numbers (models hold 115-769 or 199-754); the tags of the construct are not described; Homotetramer; Apo samples in cNW11 nanodiscs, the SB-366791 sample in GDN detergent; also called hTRPV1; hTRPV1Apo; source: HEK 293S GnTI- cells transduced with baculovirus, purified (strep resin, SEC)
Regarding B1, the stoichiometry N (commonly the number of molecules, sites or subunits per partner or assembly) in series [23] worked out at 4.

The record behind these values is article PMC10147690, “Human TRPV1 structure and inhibition by the analgesic SB-366791” (Nature Communications, 2023).
